# Results: ChEMBL document CHEMBL4840375, “Ring A/B-Modified 17β-Hydroxywithanolide Analogues as Antiproliferative Agents for Prostate Cancer and Potentiators of Immunotherapy for Renal Carcinoma and Melanoma” (J Nat Prod, 2021)
# What was measured:
# M14 [1] = experiment: Potentiation of poly I:C-induced antiproliferative activity against human M14 cells assessed as reduction in cell numbers by measuring IC50 pretreated with compound for 2 hrs followed by poly I:C addition and measured after 48 hrs by MTT assay; type: functional, cell-based; note: test concentration or dose not given here
# SK-MEL-28 [2] = experiment: Potentiation of poly I:C-induced antiproliferative activity against human SK-MEL-28 cells assessed as reduction in cell numbers by measuring IC50 pretreated with compound for 2 hrs followed by poly I:C addition and measured after 48 hrs by MTT assay; type: functional, cell-based; note: test concentration or dose not given here
# HFF = experiment: Cytotoxicity against human HFF cells assessed as reduction in cell viability incubated for 72 hrs by MTT assay; type: cell-based
# LNCaP = experiment: Antiproliferative activity against human LNCaP cells assessed as inhibition of cell proliferation incubated for 72 hrs by MTT assay; type: functional, cell-based
# SK-MEL-28 [3] = experiment: Antiproliferative activity against human SK-MEL-28 cells assessed as inhibition of cell proliferation incubated for 48 hrs by MTT assay; type: functional, cell-based; conditions: SK-MEL-28, 48 h
# SK-MEL-28 [4] = experiment: Antiproliferative activity against human SK-MEL-28 cells assessed as inhibition of cell proliferation incubated for 72 hrs by MTT assay; type: functional, cell-based; conditions: SK-MEL-28, 72 h
# M14 [5] = experiment: Antiproliferative activity against human M14 cells assessed as inhibition of cell proliferation incubated for 48 hrs by MTT assay; type: functional, cell-based; conditions: M14, 48 h
# CWR22R = experiment: Antiproliferative activity against human 22Rv1 cells assessed as inhibition of cell proliferation incubated for 72 hrs by MTT assay; type: functional, cell-based; conditions: 22Rv1, 72 h
# M14 [6] = experiment: Antiproliferative activity against human M14 cells assessed as inhibition of cell proliferation incubated for 72 hrs by MTT assay; type: functional, cell-based; conditions: M14, 72 h
# ACHN [7] = experiment: Antiproliferative activity against human ACHN cells assessed as inhibition of cell proliferation incubated for 72 hrs by MTT assay; type: functional, cell-based
# ACHN [8] = experiment: Potentiation of TRAIL-induced antiproliferative activity against human ACHN cells assessed as reduction in cell numbers by measuring IC50 pretreated with compound for 2 hrs followed by TRAIL addition and measured after 24 hrs by MTT assay; type: functional, cell-based; note: test concentration or dose not given here
# ACHN [9] = experiment: Antiproliferative activity against human ACHN cells assessed as inhibition of cell proliferation incubated for 24 hrs by MTT assay; type: functional, cell-based
# [10] = Selectivity ratio of IC50 for HFF cells to IC50 for human LNCaP cells; type: toxicity; conditions: HFF cells versus LNCaP cells, read-out: Ratio IC50
# [11] = Selectivity ratio of IC50 for HFF cells to IC50 for human 22Rv1 cells
SMILES,IC50 (SK-MEL-28 [2]),IC50 (LNCaP),IC50 (SK-MEL-28 [3]),IC50 (SK-MEL-28 [4]),IC50 (ACHN [7]),IC50 (ACHN [8]),IC50 (ACHN [9]),IC50 (M14 [1]),IC50 (HFF),IC50 (M14 [5]),IC50 (CWR22R),IC50 (M14 [6]),selectivity ratio [10],Ratio IC50 [11]
CC(=O)OC[C@]12CC[C@H]3[C@@H](C[C@H]4O[C@]45[C@H](O)C=CC(=O)[C@]35C)[C@]1(O)CC[C@@]2(O)[C@@](C)(O)C1CC(C)=C(C)C(=O)O1 (some centres not stated),4.72 µM,1.74 µM,> 5 µM,3.03 µM,3.93 µM,0.27 µM,> 5 µM,> 5 µM,> 5 µM,> 5 µM,0.33 µM,> 5 µM,,
CC(=O)OC[C@]12CC[C@H]3[C@@H](C[C@H](O)C4=CC=CC(=O)[C@@]43C)[C@]1(O)CC[C@@]2(O)[C@@](C)(O)C1CC(C)=C(C)C(=O)O1 (some centres not stated),,> 5 µM,,> 5 µM,> 5 µM,,,,> 5 µM,,> 5 µM,> 5 µM,,
CC(=O)OC[C@]12CC[C@H]3[C@@H](C[C@H]4O[C@]45[C@@H](O)C=CC(=O)[C@]35C)[C@]1(O)CC[C@@]2(O)[C@@](C)(O)C1CC(C)=C(C)C(=O)O1 (some centres not stated),4.61 µM,3.52 µM,> 5 µM,> 5 µM,> 5 µM,,,> 5 µM,> 5 µM,> 5 µM,1.53 µM,> 5 µM,,
CC(=O)OC[C@]12CC[C@H]3[C@@H](CC=C4CC=CC(=O)[C@@]43C)[C@]1(O)CC[C@@]2(O)[C@@](C)(O)C1CC(C)=C(C)C(=O)O1 (some centres not stated),1.77 µM,,> 5 µM,> 5 µM,3.09 µM,0.56 µM,> 5 µM,2.81 µM,> 5 µM,> 5 µM,0.13 µM,> 5 µM,,
CC(=O)OC[C@]12CC[C@H]3[C@@H](C[C@H]4O[C@]45C(=O)C=CC(=O)[C@]35C)[C@]1(O)CC[C@@]2(O)[C@@](C)(O)C1CC(C)=C(C)C(=O)O1 (some centres not stated),,> 5 µM,,> 5 µM,> 5 µM,,,,> 5 µM,,> 5 µM,> 5 µM,,
CC(=O)OC[C@]12CC[C@H]3[C@@H](CC=C4C=CCC(=O)[C@@]43C)[C@]1(O)CC[C@@]2(O)[C@@](C)(O)C1CC(C)=C(C)C(=O)O1 (some centres not stated),4.49 µM,,> 5 µM,> 5 µM,> 5 µM,,,> 5 µM,> 5 µM,> 5 µM,0.97 µM,> 5 µM,,
CC(=O)OC[C@]12CC[C@H]3[C@@H](C[C@H](OC(C)=O)[C@]45O[C@H]4C=CC(=O)[C@]35C)[C@]1(O)CC[C@@]2(O)[C@@](C)(O)C1CC(C)=C(C)C(=O)O1 (some centres not stated),,> 5 µM,,> 5 µM,> 5 µM,,,,> 5 µM,,3.08 µM,> 5 µM,,
CC(=O)OC[C@]12CC[C@H]3[C@@H](C[C@@H]4O[C@@]45CC=CC(=O)[C@]35C)[C@]1(O)CC[C@@]2(O)[C@@](C)(O)C1CC(C)=C(C)C(=O)O1 (some centres not stated),4.56 µM,,> 5 µM,> 5 µM,> 5 µM,,,> 5 µM,> 5 µM,> 5 µM,0.58 µM,> 5 µM,,
CC(=O)OC[C@]12CC[C@H]3[C@@H](C[C@@H](O)[C@]45O[C@H]4C=CC(=O)[C@]35C)[C@]1(O)CC[C@@]2(O)[C@@](C)(O)C1CC(C)=C(C)C(=O)O1 (some centres not stated),,> 5 µM,,> 5 µM,> 5 µM,,,,> 5 µM,,> 5 µM,> 5 µM,,
CC(=O)OC[C@]12CC[C@H]3[C@@H](C[C@H]4O[C@]45CC=CC(=O)[C@]35C)[C@]1(O)CC[C@@]2(O)[C@@](C)(O)C1CC(C)=C(C)C(=O)O1 (some centres not stated),0.11 µM,,> 5 µM,> 5 µM,,0.16 µM,> 5 µM,0.11 µM,2.29 µM,> 5 µM,,1.57 µM,115,75
CC(=O)OC[C@]12CC[C@H]3[C@@H](C[C@@H](OC(C)=O)[C@]45O[C@H]4C=CC(=O)[C@]35C)[C@]1(O)CC[C@@]2(O)[C@@](C)(O)C1CC(C)=C(C)C(=O)O1 (some centres not stated),,> 5 µM,,> 5 µM,> 5 µM,,,,> 5 µM,,1.37 µM,> 5 µM,,
CC(=O)OC[C@]12CC[C@H]3[C@@H](CC(=O)[C@]45O[C@H]4C=CC(=O)[C@]35C)[C@]1(O)CC[C@@]2(O)[C@@](C)(O)C1CC(C)=C(C)C(=O)O1 (some centres not stated),,> 5 µM,,> 5 µM,> 5 µM,,,,> 5 µM,,> 5 µM,> 5 µM,,
CC(=O)OC[C@]12CC[C@H]3[C@@H](C[C@H]4O[C@]45CCCC(=O)[C@]35C)[C@]1(O)CC[C@@]2(O)[C@@](C)(O)C1CC(C)=C(C)C(=O)O1 (some centres not stated),,> 5 µM,,> 5 µM,> 5 µM,,,,> 5 µM,,2.56 µM,> 5 µM,,
COc1cccc2c1C(=O)c1c(O)c3c(c(O)c1C2=O)C[C@@](O)(C(=O)CO)C[C@@H]3O[C@H]1C[C@H](N)[C@H](O)[C@H](C)O1 [DOXORUBICIN],,,,,,,,,0.15 µM,,,,,

# The next lines start with results.
IC50 (SK-MEL-28 [2]),IC50 (LNCaP),IC50 (SK-MEL-28 [3]),IC50 (SK-MEL-28 [4]),IC50 (ACHN [7]),IC50 (ACHN [8]),IC50 (ACHN [9]),SMILES,IC50 (M14 [1]),IC50 (HFF),IC50 (M14 [5]),IC50 (CWR22R),IC50 (M14 [6]),selectivity ratio [10],Ratio IC50 [11]
> 5 µM,> 5 µM,> 5 µM,> 5 µM,> 5 µM,,,CC(=O)OC[C@]12CC[C@H]3[C@@H](CC(=O)C4=CC=CC(=O)[C@@]43C)[C@]1(O)CC[C@@]2(O)[C@@](C)(O)C1CC(C)=C(C)C(=O)O1 (some centres not stated),> 5 µM,> 5 µM,> 5 µM,0.5 µM,2.34 µM,,
,> 5 µM,,> 5 µM,> 5 µM,,,CC(=O)OC[C@]12CC[C@H]3[C@@H](CC=C4CCCC(=O)[C@@]43C)[C@@]1(O)CC[C@@]2(O)[C@@](C)(O)C1CC(C)=C(C)C(=O)O1 (some centres not stated),,> 5 µM,,> 5 µM,> 5 µM,,
,0.68 µM,,,,,,CC(=O)OC[C@]12CC[C@H]3[C@@H](CC=C4[C@@H](OC(C)=O)C=CC(=O)[C@@]43C)[C@]1(O)CC[C@@]2(O)[C@@](C)(O)C1CC(C)=C(C)C(=O)O1 (some centres not stated),,2.69 µM,,0.13 µM,1.43 µM,,
,2.96 µM,,> 5 µM,> 5 µM,,,CC(=O)OC[C@]12CC[C@H]3[C@@H](C[C@@H](O)C4=CC=CC(=O)[C@@]43C)[C@]1(O)CC[C@@]2(O)[C@@](C)(O)C1CC(C)=C(C)C(=O)O1 (some centres not stated),,> 5 µM,,1.89 µM,> 5 µM,,
1.38 µM,0.92 µM,2.73 µM,1.55 µM,1.27 µM,0.25 µM,> 5 µM,CC(=O)OC[C@]12CC[C@H]3[C@@H](C[C@H]4O[C@]45[C@@H](OC(C)=O)C=CC(=O)[C@]35C)[C@]1(O)CC[C@@]2(O)[C@@](C)(O)C1CC(C)=C(C)C(=O)O1 (some centres not stated),1.67 µM,1.52 µM,> 5 µM,0.25 µM,> 5 µM,,
,0.35 µM,,,,,,CC(=O)OC[C@]12CC[C@H]3[C@@H](CC=C4[C@@H](O)C=CC(=O)[C@@]43C)[C@]1(O)CC[C@@]2(O)[C@@](C)(O)C1CC(C)=C(C)C(=O)O1 (some centres not stated),,> 5 µM,,0.08 µM,0.45 µM,,
2.62 µM,1.5 µM,> 5 µM,2.56 µM,3.31 µM,0.25 µM,> 5 µM,CC(=O)OC[C@]12CC[C@H]3[C@@H](C[C@H]4O[C@]45[C@H](OC(C)=O)C=CC(=O)[C@]35C)[C@]1(O)CC[C@@]2(O)[C@@](C)(O)C1CC(C)=C(C)C(=O)O1 (some centres not stated),> 5 µM,> 5 µM,> 5 µM,0.21 µM,> 5 µM,,
,2 µM,,> 5 µM,> 5 µM,,,CC(=O)OC[C@]12CC[C@H]3[C@@H](C[C@H](OC(C)=O)C4=CC=CC(=O)[C@@]43C)[C@]1(O)CC[C@@]2(O)[C@@](C)(O)C1CC(C)=C(C)C(=O)O1 (some centres not stated),,> 5 µM,,1.14 µM,> 5 µM,,
,1 µM,,> 5 µM,> 5 µM,,,CC(=O)OC[C@]12CC[C@H]3[C@@H](C[C@@H](OC(C)=O)C4=CC=CC(=O)[C@@]43C)[C@]1(O)CC[C@@]2(O)[C@@](C)(O)C1CC(C)=C(C)C(=O)O1 (some centres not stated),,> 5 µM,,0.63 µM,> 5 µM,,
,0.53 µM,,> 5 µM,> 5 µM,,,CC(=O)OC[C@]12CC[C@H]3[C@@H](C[C@H](O)[C@]45O[C@H]4C=CC(=O)[C@]35C)[C@]1(O)CC[C@@]2(O)[C@@](C)(O)C1CC(C)=C(C)C(=O)O1 (some centres not stated),,> 5 µM,,0.25 µM,> 5 µM,,
